Results as given in ChEMBL document CHEMBL5390259, “Structure Determination of Kahalalide Analogues Based on Metagenomic Analysis of a Bryopsis sp. Marine Green Alga” (J Nat Prod, 2023).

Experiment: Cytotoxicity against rat 3Y1 cells incubated for 2 days by MTT assay
Assay type: toxicity, cell-based

## C/C=C1\NC(=O)[C@H](Cc2ccccc2)NC(=O)[C@@H]([C@@H](C)CC)NC(=O)[C@@H]([C@@H](C)CC)NC(=O)[C@H](NC(=O)[C@@H](CC(C)C)NC(=O)[C@H](CCCN)NC(=O)[C@H]2CCCN2C(=O)[C@H](NC(=O)[C@@H](NC(=O)[C@@H](NC(=O)[C@H](NC(=O)C=C(C)C)[C@@H](C)O)C(C)C)C(C)C)C(C)C)[C@@H](C)OC(=O)[C@H](C(C)C)NC1=O
  IC50 at 2 days: 7.4 µM

## C/C=C1\NC(=O)[C@H](Cc2ccccc2)NC(=O)[C@@H]([C@@H](C)CC)NC(=O)[C@@H]([C@@H](C)CC)NC(=O)[C@H](NC(=O)[C@@H](CC(C)C)NC(=O)[C@H](CCCN)NC(=O)[C@H]2CCCN2C(=O)[C@H](NC(=O)[C@@H](NC(=O)[C@@H](NC(=O)[C@H](NC(=O)CCC)[C@@H](C)O)C(C)C)C(C)C)C(C)C)[C@@H](C)OC(=O)[C@H](C(C)C)NC1=O
  IC50 at 2 days: 10 µM
